Consider 1 substance from patent US9867795B2, “Nitrated lipids and methods of making and using thereof” (The UAB Research Foundation, priority 2004, dated 2018).

This test deals with T1, hPPARδ (Homo sapiens, UniProt Q03181).
T1 construct: For assessing full-length PPAR receptors, CV-1 cells were transiently co-transfected; expressed in transfected cells; host or cells: CV-1 cells
T1 sequence (Q03181 1-441): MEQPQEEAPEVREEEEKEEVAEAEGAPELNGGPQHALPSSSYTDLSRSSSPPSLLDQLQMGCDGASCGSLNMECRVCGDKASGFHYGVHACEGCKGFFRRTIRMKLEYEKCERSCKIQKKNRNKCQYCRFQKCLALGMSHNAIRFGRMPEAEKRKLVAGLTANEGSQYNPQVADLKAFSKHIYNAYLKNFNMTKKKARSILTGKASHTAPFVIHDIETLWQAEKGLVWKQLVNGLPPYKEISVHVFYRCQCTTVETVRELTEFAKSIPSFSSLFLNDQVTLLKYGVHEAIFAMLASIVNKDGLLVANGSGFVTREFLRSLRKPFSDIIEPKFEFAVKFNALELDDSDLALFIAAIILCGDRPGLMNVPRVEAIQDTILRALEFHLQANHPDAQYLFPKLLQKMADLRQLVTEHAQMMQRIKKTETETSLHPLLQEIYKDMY
Briefly: CV-1 PPRE×3 TK-Luciferase transient transfection assay. The class given is cell-based. Conditions: PPRE reporter, CV-1 cells. The method, then: Cell Transient Transfection Assay. CV-1 cells from ATCC (Manassas, Va.) were grown to ˜85% confluence in DMEM/F12 supplemented with 10% FBS, 1% penicillin-streptomycin. Then, cells were transiently co-transfected with a plasmid containing the luciferase gene under regulation by four Gal4 DNA binding elements (UASG×4 TK-Luciferase, a gift from Dr. Ronald M. Evans), in concert with plasmids containing the ligand binding domain for the different nuclear receptors fused to the Gal4 DNA binding domain. For assessing full-length PPAR receptors, CV-1 cells were transiently co-transfected with a plasmid containing the luciferase gene under the control of three tandem PPAR response elements (PPRE) (PPRE×3 TK-Luciferase) and hPPARγ, hPPARα or hPPARδ expression plasmids, respectively. In all cases, fluorescence protein (GFP) expression plasmid was co-transfected as the control for the transfection efficiency. Twenty-four hours after the transfection, cells were cultured for another 24 hours in Optium-MEM (Invitrogen, Carlsbad, Calif.). Then, cells were treated with different compounds as indicated in figures for 24 hours in Optium-MEM. […]
PPAR transient transfection assay. […] In all cases, fluorescence protein (GFP) expression plasmid was co-transfected as the control for transfection efficiency. […]

As for “9- and 10-nitro-9-cis-octadecenoic acid [OA-NO2]”, the “concentration at which PPARδ activation is significantly different from vehicle” value (FIG. 17 legend) is 1 µM. Further, the “concentration at which PPARδ shows significant activation” value (text of Example 3) is recorded as about 300 nM.
